The C3SDB collision cross section collection
“And” between values parts separate entries of the source, which are not always exact repeats. Identical values can stand only once.

Tests used:
[1] = instrument: DT, stepped-field
[2] = instrument: DT, single field, calibrated with Agilent tune mix (Agilent)
[3] = [M+Na]+; instrument: DT; stepped-field
[4] = instrument: TW, calibrated with phosphatidylcholines (ESI+) and phosphatidylethanolamines (ESI-)
[5] = [M+H]+; instrument: TW

With CCCCCCCCCCCCCCCC(=O)OC[C@H](COP(=O)(O)O[C@H]1C(O)C(O)C(O)[C@@H](O)C1O)OC(=O)CCCCCCCCCCC (some centres undefined) [PI(12:0/16:0)] the “collision cross section (N2)” value ([1]; [M-H]-) was 273.5 Å².
For CCCCC/C=C\C/C=C\CCCCCCCCCC(=O)O[C@H](COC(=O)CCCCCCCCCCCCCCC)COP(=O)(O)OCCN [PE(36:2)], the “collision cross section (N2)” value ([2]; [M+H]+) was 279.3 Å², the “collision cross section (N2)” value ([2]; [M+Na]+) was 284.6 Å² and the “collision cross section (N2)” value ([2]; [M-H]-) was 268.5 Å². For the same compound, the “collision cross section (N2)” value [3] was 285.7 Å², the “collision cross section (N2)” value ([1]; [M+H]+) was 293 Å² and the “collision cross section (N2)” value ([1]; [M-H]-) was 276 Å² and 275.9 Å². The “collision cross section (N2)” value ([4]; [M+H]+) was 275.7 Å² and the “collision cross section (N2)” value ([4]; [M-H]-) was 267.4 Å².
In the case of CC/C=C\C/C=C\C/C=C\C/C=C\CCCCC(=O)OC[C@H](COP(=O)(O)OC[C@@H](O)CO)OC(=O)CCCCCCCCCCCCCCCCC [PG(36:4)], the “collision cross section (N2)” value ([2]; [M+NH4]+) is reported as 283.4 Å², the “collision cross section (N2)” value ([1]; [M-H]-) is reported as 278 Å² and the “collision cross section (N2)” value ([4]; [M+Na]+) is reported as 281 Å². The “collision cross section (N2)” value ([4]; [M-H]-) was 271.3 Å².
In the case of CCCCCC/C=C\CCCCCCCC(=O)OC[C@@H](O)COP(=O)(O)OC[C@@H](O)CO [LPG(16:1)], the “collision cross section (N2)” value ([1]; [M-H]-) is reported as 212 Å².
With CCCCC/C=C\C/C=C\C/C=C\CCCCCCC(=O)O[C@H](COCCCCCCCCCCCCCCCC)COP(=O)([O-])OCC[N+](C)(C)C [PC(o36:3)] the “collision cross section (N2)” value ([1]; [M+H]+) was 301 Å².
For CCCCC/C=C\C/C=C\C/C=C\CCCCCCC(=O)O[C@H](COC(=O)CCCCCCC/C=C\CCCCCC)COP(=O)(O)O[C@H]1C(O)C(O)C(O)[C@@H](O)C1O (some centres undefined) [PI(36:4)], the “collision cross section (N2)” value ([2]; [M+H]+) was 296.5 Å², the “collision cross section (N2)” value ([2]; [M+NH4]+) was 297.3 Å² and the “collision cross section (N2)” value ([2]; [M+Na]+) was 294.5 Å². For the same compound, the “collision cross section (N2)” value ([1]; [M-H]-) was 297.2 Å², the “collision cross section (N2)” value ([4]; [M+Na]+) was 290.5 Å² and the “collision cross section (N2)” value ([4]; [M-H]-) was 286.1 Å².
With C=C1C[C@@]23CC[C@H]4[C@@](C)(CCC[C@@]4(C)C(=O)O[C@@H]4O[C@H](CO)[C@@H](O)[C@H](O)[C@H]4O)[C@@H]2CC[C@]1(O[C@@H]1O[C@H](CO)[C@@H](O)[C@H](O[C@@H]2O[C@H](CO)[C@@H](O)[C@H](O)[C@H]2O)[C@H]1O[C@@H]1O[C@@H](C)[C@H](O)[C@@H](O)[C@H]1O)C3 [Rebaudioside C] the “collision cross section (N2)” value [5] was 299.49 Å².
With CCCCCCCCSC(=O)Oc1cc(Cl)nnc1-c1ccccc1 [Pyridate] the “collision cross section (N2)” value [5] was 199.9 Å².
For C=C1C[C@@]23CC[C@H]4[C@@](C)(CCC[C@@]4(C)C(=O)O[C@@H]4O[C@H](CO)[C@@H](O)[C@H](O)[C@H]4O)[C@@H]2CC[C@]1(O[C@@H]1O[C@H](CO)[C@@H](O)[C@H](O[C@@H]2O[C@H](CO)[C@@H](O)[C@H](O)[C@H]2O)[C@H]1O[C@@H]1OC[C@@H](O)[C@H](O)[C@H]1O)C3 [Rebaudioside F], the “collision cross section (N2)” value [5] was 293.18 Å².
For CC/C=C\C/C=C\C/C=C\C/C=C\CCCCC(=O)OC[C@H](COP(=O)(O)O[C@H]1C(O)C(O)C(O)[C@@H](O)C1O)OC(=O)CCCCCCCCCCCCCCCCCCC (some centres undefined) [PI(38:4)], the “collision cross section (N2)” value ([2]; [M+H]+) was 302.3 Å², the “collision cross section (N2)” value ([2]; [M+NH4]+) was 304 Å² and the “collision cross section (N2)” value ([2]; [M-H]-) was 292.9 Å². The “collision cross section (N2)” value ([1]; [M-H]-) was 303.6 Å² and 300.7 Å², the “collision cross section (N2)” value ([4]; [M+Na]+) was 297.4 Å² and the “collision cross section (N2)” value ([4]; [M-H]-) was 292.1 Å².
With COCC(=O)N(c1c(C)cccc1C)C(C)C(=O)OC (centres undefined) [Metalaxyl] the “collision cross section (N2)” value [5] was 159.96 Å².
In the case of CC/C=C\C/C=C\C/C=C\C/C=C\C/C=C\CCCC(=O)O[C@H](COCCCCCCCCCCCCCCCC)COP(=O)([O-])OCC[N+](C)(C)C [PC(o36:5)], the “collision cross section (N2)” value ([1]; [M+H]+) is reported as 293.8 Å².
For O=C(Nc1ccccc1-c1ccc(Cl)cc1)c1cccnc1Cl [Boscalid], the “collision cross section (N2)” value [5] was 171.67 Å².
For C[C@H]1c2cccc(O)c2C(=O)C2=C(O)[C@]3(O)C(=O)C(C(N)=O)=C(O)[C@@H](N(C)C)[C@@H]3[C@@H](O)[C@@H]21 [Doxycycline], the “collision cross section (N2)” value [5] was 197.4 Å².
In the case of CCCCC/C=C\C/C=C\CCCCCCCC(=O)O[C@H](COC(=O)CCCCCCCCCCCCCCC)COP(=O)(O)OCCN [PE(16:1/18:1)], the “collision cross section (N2)” value ([1]; [M+H]+) is reported as 283.8 Å².
For CCCC/C=C\CCCCCCCC(=O)OC[C@H](COP(=O)(O)OC[C@@H](O)CO)OC(=O)CCCCCCC/C=C\CCCCCCCC [PG(16:1/16:1)], the “collision cross section (N2)” value ([1]; [M-H]-) was 267.1 Å².
For Fc1ccc(cc1)N\3c2cc(c(F)cc2C(=O)C(/C(=O)O)=C/3)N4CCN(C)CC4 [Difloxacine], the “collision cross section (N2)” value [5] was 192.3 Å².
With CCCCCCCC/C=C\CCCCCCCCCC(=O)O[C@H](COC(=O)CCCCCCCCCCC)COP(=O)(O)O [PA(16:0/16:1)] the “collision cross section (N2)” value ([1]; [M-H]-) was 251.8 Å².
For CC/C=C\C/C=C\C/C=C\C/C=C\C/C=C\CCCC(=O)O[C@H](COCCCCCCCCCCCCCCCC)COP(=O)(O)OCCN [PE(o36:5)], the “collision cross section (N2)” value [3] was 279.2 Å² and the “collision cross section (N2)” value ([1]; [M-H]-) was 270.4 Å².
With CCCCC/C=C\C/C=C\CCCCCCCCCCCC(=O)O[C@H](COC(=O)CCCCCCC/C=C\CCCCCC)COP(=O)(O)OC[C@H](N)C(=O)O [PS(38:3)] the “collision cross section (N2)” value ([1]; [M-H]-) was 292.4 Å² and the “collision cross section (N2)” value ([4]; [M-H]-) was 281.7 Å².
In the case of CCCCCCCCCC/C=C\CCCCCCCCCC(=O)O[C@H](COC(=O)CCCCCCCCCCCCCCCCC)COP(=O)(O)OC[C@H](N)C(=O)O [PS(40:1)], the “collision cross section (N2)” value ([1]; [M-H]-) is reported as 302.2 Å².
For CCOP(=S)(OCC)SCS(=O)(=O)C(C)(C)C [Terbufos-sulfone], the “collision cross section (N2)” value [5] was 172.88 Å².
